Six compounds from ChEMBL document CHEMBL3608278 (J Med Chem, 2015) can be followed below.

Test [1] has as its target T1, Potassium voltage-gated channel subfamily A member 3 (Homo sapiens, UniProt P22001). As to the kind of experiment: cell-based. Set-up: species or system Blood.
Test [2] has as its target T1, Potassium voltage-gated channel subfamily A member 3. Set-up: species or system Blood.

T1 sequence (P22001 whole entry): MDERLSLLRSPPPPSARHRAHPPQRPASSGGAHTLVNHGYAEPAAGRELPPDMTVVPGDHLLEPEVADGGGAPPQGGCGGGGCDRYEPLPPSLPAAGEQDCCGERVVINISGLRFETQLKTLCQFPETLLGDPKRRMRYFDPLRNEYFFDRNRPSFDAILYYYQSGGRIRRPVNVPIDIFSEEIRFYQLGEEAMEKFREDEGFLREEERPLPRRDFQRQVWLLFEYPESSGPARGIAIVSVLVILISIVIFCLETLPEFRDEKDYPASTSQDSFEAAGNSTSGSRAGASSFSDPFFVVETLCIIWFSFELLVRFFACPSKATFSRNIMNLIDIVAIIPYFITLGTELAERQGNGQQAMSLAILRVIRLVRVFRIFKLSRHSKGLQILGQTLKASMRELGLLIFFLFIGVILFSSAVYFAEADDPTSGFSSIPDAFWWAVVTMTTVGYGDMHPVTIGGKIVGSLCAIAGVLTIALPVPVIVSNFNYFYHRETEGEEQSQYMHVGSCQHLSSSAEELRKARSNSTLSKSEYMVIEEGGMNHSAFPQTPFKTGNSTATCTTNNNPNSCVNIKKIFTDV

As usually defined, the IC50 is the concentration that gives 50% inhibition. High values mean a need for much substance, low ones inhibition by little substance. For `CC[C@H](C)[C@@H]1NC(=O)[C@@H](NC(=O)[C@H](CO)NC(=O)[C@@H](N)CCCNC(=N)N)CSSC[C@@H](C(=O)O)NC(=O)[C@H]([C@@H](C)O)NC(=O)CNC(=O)[C@@H]2CSSC[C@@H]3NC(=O)[C@H](CCC(N)=O)NC(=O)[C@H](Cc4ccccc4)NC(=O)[C@H](C)NC(=O)[C@H]([C@@H](C)O)NC(=O)[C@H](CSSC[C@H](NC(=O)[C@H](Cc4ccccc4)NC(=O)[C@H](CO)NC(=O)[C@H](CC(C)C)NC(=O)[C@H](CCCNC(=N)N)NC(=O)[C@H](Cc4ccc(O)cc4)NC(=O)[C@H](CCCCN)NC(=O)[C@H](CCSC)NC(=O)[C@H](CO)NC(=O)[C@H](CCCCN)NC(=O)[C@H](CCCCN)NC3=O)C(=O)N[C@@H](CCCNC(=N)N)C(=O)N[C@@H](CCCCN)C(=O)N[C@@H]([C@@H](C)O)C(=O)N2)NC(=O)[C@H](CCCNC(=N)N)NC(=O)[C@H](CO)NC(=O)[C@H](CCCCN)NC(=O)[C@@H]2CCCN2C(=O)[C@H]([C@@H](C)CC)NC(=O)[C@H]([C@@H](C)O)NC(=O)[C@H](CC(=O)O)NC1=O`, the IC50 turned out to be 0.041 nM in test [1] and 0.089 nM in test [2].
As to `CC[C@H](C)[C@@H]1NC(=O)[C@@H](NC(=O)[C@H](CO)NC(=O)[C@@H](N)CCCNC(=N)N)CSSC[C@@H](C(=O)O)NC(=O)[C@H]([C@@H](C)O)NC(=O)CNC(=O)[C@@H]2CSSC[C@@H]3NC(=O)[C@H](CCC(N)=O)NC(=O)[C@H](Cc4ccccc4)NC(=O)[C@H](C)NC(=O)[C@H]([C@@H](C)O)NC(=O)[C@H](CSSC[C@H](NC(=O)[C@H](Cc4ccccc4)NC(=O)[C@H](CO)NC(=O)[C@H](CCCCN)NC(=O)[C@H](CCCNC(=N)N)NC(=O)[C@H](Cc4ccc(O)cc4)NC(=O)[C@H](CCCCN)NC(=O)[C@H](CCSC)NC(=O)[C@H](CO)NC(=O)[C@H](Cc4cnc[nH]4)NC(=O)[C@H](CCCCN)NC3=O)C(=O)N[C@@H](CCCNC(=N)N)C(=O)N[C@@H](CCCCN)C(=O)N[C@@H]([C@@H](C)O)C(=O)N2)NC(=O)[C@H](CCCNC(=N)N)NC(=O)[C@H](CO)NC(=O)[C@H](CCCCN)NC(=O)[C@@H]2CCCN2C(=O)[C@H]([C@@H](C)CC)NC(=O)[C@H]([C@@H](C)O)NC(=O)[C@H](CC(=O)O)NC1=O`, the IC50 in test [1] amounted to 0.226 nM; in test [2] it was 0.366 nM.
On the same counts, the results for `CC[C@H](C)[C@@H]1NC(=O)[C@@H](NC(=O)[C@H](CO)NC(=O)[C@@H](N)CCCNC(=N)N)CSSC[C@@H](C(=O)O)NC(=O)[C@H]([C@@H](C)O)NC(=O)CNC(=O)[C@@H]2CSSC[C@@H]3NC(=O)[C@H](CCC(N)=O)NC(=O)[C@H](Cc4ccccc4)NC(=O)[C@H](C)NC(=O)[C@H]([C@@H](C)O)NC(=O)[C@H](CSSC[C@H](NC(=O)[C@H](Cc4ccccc4)NC(=O)[C@H](CO)NC(=O)[C@H](CC(C)C)NC(=O)[C@H](CCCNC(=N)N)NC(=O)[C@H](Cc4ccc(O)cc4)NC(=O)[C@H](CCCCN)NC(=O)[C@H](CCSC)NC(=O)[C@H](CO)NC(=O)[C@H](Cc4c[nH]cn4)NC(=O)[C@H](CCCCN)NC3=O)C(=O)N[C@@H](CCCNC(=N)N)C(=O)N[C@@H](CCCCN)C(=O)N[C@@H](CCCCN)C(=O)N2)NC(=O)[C@H](CCCNC(=N)N)NC(=O)[C@H](CO)NC(=O)[C@H](CCCCN)NC(=O)[C@@H]2CCCN2C(=O)[C@H]([C@@H](C)CC)NC(=O)[C@H]([C@@H](C)O)NC(=O)[C@H](CC(=O)O)NC1=O` are 5.98 nM and 27.9 nM.
`CC[C@H](C)[C@@H]1NC(=O)[C@@H](NC(=O)[C@H](CO)NC(=O)[C@@H](N)CCCNC(=N)N)CSSC[C@@H](C(=O)O)NC(=O)[C@H]([C@@H](C)O)NC(=O)CNC(=O)[C@@H]2CSSC[C@@H]3NC(=O)[C@H](CCN)NC(=O)[C@H](Cc4ccccc4)NC(=O)[C@H](C)NC(=O)[C@H]([C@@H](C)O)NC(=O)[C@H](CSSC[C@H](NC(=O)[C@H](Cc4ccccc4)NC(=O)[C@H](CO)NC(=O)[C@H](CC(C)C)NC(=O)[C@H](CCCNC(=N)N)NC(=O)[C@H](Cc4ccc(O)cc4)NC(=O)[C@H](CCCCN)NC(=O)[C@H](CCSC)NC(=O)[C@H](CO)NC(=O)[C@H](Cc4c[nH]cn4)NC(=O)[C@H](CCCCN)NC3=O)C(=O)N[C@@H](CCCNC(=N)N)C(=O)N[C@@H](CCCCN)C(=O)N[C@@H]([C@@H](C)O)C(=O)N2)NC(=O)[C@H](CCCNC(=N)N)NC(=O)[C@H](CO)NC(=O)[C@H](CCCCN)NC(=O)[C@@H]2CCCN2C(=O)[C@H]([C@@H](C)CC)NC(=O)[C@H]([C@@H](C)O)NC(=O)[C@H](CC(=O)O)NC1=O`: the IC50 in test [1] was determined as 0.086 nM; in test [2], 0.223 nM.
With `CC[C@H](C)[C@@H]1NC(=O)[C@@H](NC(=O)[C@H](CO)NC(=O)[C@@H](N)CCCNC(=N)N)CSSC[C@@H](C(=O)N[C@@H](C)C(=O)O)NC(=O)[C@H]([C@@H](C)O)NC(=O)CNC(=O)[C@@H]2CSSC[C@@H]3NC(=O)[C@H](CCCCN)NC(=O)[C@H](Cc4ccccc4)NC(=O)[C@H](C)NC(=O)[C@H]([C@@H](C)O)NC(=O)[C@H](CSSC[C@H](NC(=O)[C@H](Cc4ccccc4)NC(=O)[C@H](CO)NC(=O)[C@H](CC(C)C)NC(=O)[C@H](CCCNC(=N)N)NC(=O)[C@H](Cc4ccc(O)cc4)NC(=O)[C@H](CCCCN)NC(=O)[C@H](CCSC)NC(=O)[C@H](CO)NC(=O)[C@H](Cc4cnc[nH]4)NC(=O)[C@H](CCCCN)NC3=O)C(=O)N[C@@H](CCCNC(=N)N)C(=O)N[C@@H](CCCCN)C(=O)N[C@@H]([C@@H](C)O)C(=O)N2)NC(=O)[C@H](CCCNC(=N)N)NC(=O)[C@H](CO)NC(=O)[C@H](CCCCN)NC(=O)[C@@H]2CCCN2C(=O)[C@H]([C@@H](C)CC)NC(=O)[C@H]([C@@H](C)O)NC(=O)[C@H](CC(=O)O)NC1=O`, the IC50 was determined as 0.138 nM in test [1] and 0.266 nM in test [2].
Consider `CCCC[C@@H]1NC(=O)[C@H](CO)NC(=O)[C@H](Cc2c[nH]cn2)NC(=O)[C@H](CCCCN)NC(=O)[C@@H]2CSSC[C@@H]3NC(=O)[C@H]([C@@H](C)O)NC(=O)[C@H](CCCCN)NC(=O)[C@H](CCCNC(=N)N)NC(=O)[C@H](CSSC[C@H](NC(=O)[C@H](CCCNC(=N)N)NC(=O)[C@H](CO)NC(=O)[C@H](CCCCN)NC(=O)[C@@H]4CCCN4C(=O)[C@H]([C@@H](C)CC)NC(=O)[C@H]([C@@H](C)O)NC(=O)[C@H](CC(=O)O)NC(=O)[C@H]([C@@H](C)CC)NC(=O)[C@@H](NC(=O)[C@H](CO)NC(=O)[C@@H](N)CCCNC(=N)N)CSSC[C@@H](C(N)=O)NC(=O)[C@H]([C@@H](C)O)NC(=O)CNC3=O)C(=O)N[C@@H]([C@@H](C)O)C(=O)N[C@@H](C)C(=O)N[C@@H](Cc3ccccc3)C(=O)N[C@@H](CCCCN)C(=O)N2)NC(=O)[C@H](Cc2ccccc2)NC(=O)[C@H](CO)NC(=O)[C@H](CC(C)C)NC(=O)[C@H](CCCNC(=N)N)NC(=O)[C@H](Cc2ccc(O)cc2)NC(=O)[C@H](CCCCN)NC1=O`, for which the IC50 in test [1] was 0.823 nM; in test [2], 1.1 nM.
